In the supplement of paper PMC10627819:

Assays:
S. aureus DSM 20231 = assay: Bliss interaction score (quartile over a dose matrix) (fitness difference); higher = more antagonism (negative = synergy)
Summary of the method: (§1)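 The Bliss score is observed fitness minus expected fitness, where the expected value is the product of single-drug fitness values inferred from combination data. Fitness is OD595 at entry into stationary phase normalised to the plate's robust no-drug mean and capped at 1. Scores are reported as quartiles spanning technical, biological and donor/recipient replicates.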

S. aureus Newman = assay: as above
Summary of the method: as §1

B. subtilis 168 [1] = assay: as above
Summary of the method: as §1

S. pneumoniae D39V [2] = assay: as above
Summary of the method: as §1

B. subtilis 168 [3] = assay: fitness (endpoint OD595 vs no drug) (fraction); higher = more growth
Summary of the method: (§2)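 Each well of a 384-well plate received 30 µl of culture at OD595 0.01, or 55 µl for S. pneumoniae. TSB, LB Lennox or CY served as media at 37 °C. OD595 was taken every 30 min for 14 h and corrected by subtracting the first reading. Fitness is the optical density at stationary-phase entry divided by the robust mean of no-drug controls, capped at 1.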

S. pneumoniae D39V [4] = assay: as above
Summary of the method: as §2
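Throughout, for Bliss interaction score (quartile over a dose matrix): first quartile when negative (synergy) and third quartile when positive (antagonism).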

CCC[C@@H]1C[C@@H](C(=O)N[C@@H]([C@H]2O[C@H](SC)[C@H](O)[C@@H](O)[C@H]2O)[C@H](C)Cl)N(C)C1 [Clindamycin] + CO[C@@H]1[C@@H](OC(N)=O)[C@@H](O)[C@H](Oc2ccc3c(O)c(NC(=O)c4ccc(O)c(CC=C(C)C)c4)c(=O)oc3c2C)OC1(C)C [Novobiocin]
Details | Bliss interaction score
B. subtilis 168 [1] | -0.063
S. aureus DSM 20231 | 0.0437
S. aureus Newman | 0.16
S. pneumoniae D39V [2] | -0.102

fitness, B. subtilis 168 [3], one replicate
Details | first compound 0.0039 µg/mL | first compound 0.0078 µg/mL | first compound 0.0156 µg/mL | first compound 0.0625 µg/mL | first compound 0.125 µg/mL | first compound 0.25 µg/mL
partner 0.05 µg/mL | ≥ 1 | 0.895 | 0.867 | – | – | –
partner 0.1 µg/mL | ≥ 1 | 0.889 | 0.843 | – | – | –
partner 0.125 µg/mL | – | – | – | 0.526 | 0.496 | 0.348
partner 0.2 µg/mL | ≥ 1 | 0.903 | 0.818 | – | – | –
partner 0.25 µg/mL | – | – | – | 0.411 | 0.39 | 0.318
partner 0.5 µg/mL | – | – | – | 0.353 | 0.276 | 0.0724

fitness, B. subtilis 168 [3]
Details | first compound 0.0625 µg/mL | first compound 0.125 µg/mL | first compound 0.25 µg/mL
partner 0.0125 µg/mL | 0.558 | 0.365 | 0.346
partner 0.025 µg/mL | 0.563 | 0.334 | 0.326
partner 0.05 µg/mL | 0.581 | 0.369 | 0.325

O=C(O[C@@H]1Cc2c(O)cc(O)cc2O[C@@H]1c1cc(O)c(O)c(O)c1)c1cc(O)c(O)c(O)c1 [EGCG] + CO[C@@H]1[C@@H](OC(N)=O)[C@@H](O)[C@H](Oc2ccc3c(O)c(NC(=O)c4ccc(O)c(CC=C(C)C)c4)c(=O)oc3c2C)OC1(C)C [Novobiocin]
Details | Bliss interaction score
B. subtilis 168 [1] | -0.0765
S. aureus DSM 20231 | 0.0574
S. aureus Newman | 0.074
S. pneumoniae D39V [2] | -0.0624

fitness, B. subtilis 168 [3]
Details | first compound 6.25 µg/mL | first compound 12.5 µg/mL | first compound 25 µg/mL
partner 0.0125 µg/mL | 0.968 | 0.643 | 0.253
partner 0.025 µg/mL | 0.93 | 0.568 | 0.234
partner 0.05 µg/mL | 0.9 | – | 0.29

fitness, B. subtilis 168 [3], one replicate
Details | partner 0.1 µg/mL | partner 0.125 µg/mL | partner 0.2 µg/mL | partner 0.25 µg/mL | partner 0.5 µg/mL
first compound 6.25 µg/mL | 0.949 | 0.92 | 0.896 | 0.875 | 0.563
first compound 12.5 µg/mL | 0.756 | 0.69 | 0.759 | 0.522 | 0.194
first compound 25 µg/mL | 0.546 | 0.213 | 0.541 | 0.223 | 0.207

CCC[C@@H]1C[C@@H](C(=O)N[C@@H]([C@H]2O[C@H](SC)[C@H](O)[C@@H](O)[C@H]2O)[C@@H](C)O)N(C)C1 [Lincomycin] + CO[C@@H]1[C@@H](OC(N)=O)[C@@H](O)[C@H](Oc2ccc3c(O)c(NC(=O)c4ccc(O)c(CC=C(C)C)c4)c(=O)oc3c2C)OC1(C)C [Novobiocin]
Details | Bliss interaction score
B. subtilis 168 [1] | -0.0587
S. aureus DSM 20231 | 0.104
S. aureus Newman | 0.191
S. pneumoniae D39V [2] | -0.0884

fitness, B. subtilis 168 [3]
Details | first compound 0.1 µg/mL | first compound 0.2 µg/mL | first compound 0.4 µg/mL
partner 0.0125 µg/mL | 0.889 | 0.971 | 0.899
partner 0.025 µg/mL | 0.879 | 0.894 | 0.845
partner 0.05 µg/mL | 0.905 | 0.932 | 0.902

fitness, B. subtilis 168 [3], one replicate
Details | first compound 0.1 µg/mL | first compound 0.2 µg/mL | first compound 0.4 µg/mL | first compound 0.8 µg/mL | first compound 1.6 µg/mL
partner 0.1 µg/mL | ≥ 1 | 0.995 | 0.976 | – | –
partner 0.125 µg/mL | – | – | 0.836 | 0.883 | 0.88
partner 0.2 µg/mL | 0.991 | 0.956 | ≥ 1 | – | –
partner 0.25 µg/mL | – | – | 0.809 | 0.848 | 0.819
partner 0.5 µg/mL | – | – | 0.569 | 0.563 | 0.594

CCC[C@@H]1C[C@@H](C(=O)N[C@@H]([C@H]2O[C@H](SC)[C@H](O)[C@@H](O)[C@H]2O)[C@@H](C)O)N(C)C1 [Lincomycin] + Clc1ccc(COC(Cn2ccnc2)c2ccc(Cl)cc2Cl)c(Cl)c1 [Miconazole]
Details | Bliss interaction score
B. subtilis 168 [1] | 0.0378
S. aureus DSM 20231 | 0.0484
S. aureus Newman | 0.0538
S. pneumoniae D39V [2] | 0.117

S. pneumoniae D39V [4]
Details | fitness
first compound 0.2 µg/mL, partner 1.073 µg/mL | 0.824
first compound 0.2 µg/mL, partner 2.145 µg/mL | 0.874
first compound 0.2 µg/mL, partner 4.29 µg/mL | 0.807
first compound 0.215 µg/mL, partner 1.25 µg/mL | 0.808
first compound 0.215 µg/mL, partner 2.5 µg/mL | 0.782
first compound 0.215 µg/mL, partner 5 µg/mL | 0.81
first compound 0.4 µg/mL, partner 1.073 µg/mL | 0.716
first compound 0.4 µg/mL, partner 2.145 µg/mL | 0.683
first compound 0.4 µg/mL, partner 4.29 µg/mL | 0.544
first compound 0.43 µg/mL, partner 1.25 µg/mL | 0.71
first compound 0.43 µg/mL, partner 2.5 µg/mL | 0.682
first compound 0.43 µg/mL, partner 5 µg/mL | 0.689
first compound 0.8 µg/mL, partner 4.29 µg/mL | 0.275
first compound 0.86 µg/mL, partner 1.25 µg/mL | 0.264
first compound 0.86 µg/mL, partner 2.5 µg/mL | 0.308
first compound 0.86 µg/mL, partner 5 µg/mL | 0.377

CCC[C@@H]1C[C@@H](C(=O)N[C@@H]([C@H]2O[C@H](SC)[C@H](O)[C@@H](O)[C@H]2O)[C@@H](C)O)N(C)C1 [Lincomycin] + O=C1CN(/N=C/c2ccc([N+](=O)[O-])o2)C(=O)N1 [Nitrofurantoin]
Details | Bliss interaction score
B. subtilis 168 [1] | 0.163
S. aureus DSM 20231 | -0.0943
S. aureus Newman | -0.101
S. pneumoniae D39V [2] | -0.118

fitness, S. pneumoniae D39V [4]
Details | first compound 0.2 µg/mL | first compound 0.215 µg/mL | first compound 0.4 µg/mL | first compound 0.43 µg/mL | first compound 0.8 µg/mL | first compound 0.86 µg/mL
partner 1.285 µg/mL | 0.718 | – | 0.677 | – | 0.281 | –
partner 2 µg/mL | – | 0.753 | – | 0.681 | – | 0.392
partner 2.57 µg/mL | 0.775 | – | 0.716 | – | 0.266 | –
partner 4 µg/mL | – | 0.763 | – | 0.7 | – | 0.358
partner 8 µg/mL | – | 0.711 | – | 0.381 | – | 0.141

S. pneumoniae D39V [4], partner 5.14 µg/mL, one replicate
Details | fitness
first compound 0.2 µg/mL | 0.768
first compound 0.4 µg/mL | 0.633
first compound 0.8 µg/mL | 0.189
